The text below walks through data of patent US8012980B2, “Isoquinolinone derivatives” (AstraZeneca AB, priority 2008, dated 2011).

In series [1] the test system is LPS-induced BAL neutrophilia. Nature of the series: LPS Challenge Assay (neutrophil migration into the airway after aerosol LPS challenge). It counts as in vivo, Han Wistar (HW) rat. To be noted: Han Wistar rat; nose-only inhalation; nebuliser concentration of <1 mg/mL; dosed 0.5 hour before the LPS challenge. How it is done:
The following is a description of an assay that may be used to evaluate a compounds activity on neutrophil migration into the airway after aerosol challenge with lipopolysaccharide (LPS) in the Han Wistar (HW) rat.
LPS challenge in HW rats caused an influx of inflammatory cells into the lungs. Rats were challenged either with an aerosol of 0.9% w/v saline or 0.5 mg/mL LPS in 0.9% saline for 30 min. Rats were dosed with vehicle or test compound by nose-only inhalation administration at various time points before challenge depending upon the experimental protocol. Test compound groups could either be the same compound at different doses or single doses of different compounds. […]
The rats were euthanized with 200 mg pentobarbitone sodium at various time points after challenge depending upon the nature of the study, but typically 4 hr after LPS challenge. […] An aliquot of BAL fluid was removed and counted on the Sysmex XT2000Vet automated cell counter (Sysmex UK, Milton Keynes). […] Cells were classified as eosinophils, neutrophils or mononuclear cells (mononuclear cells included monocytes, macrophages and lymphocytes) and were expressed as a percentage of the total cell count.
Compounds were scored as active if a statistically significant (i.e. p<0.05) inhibition of the LPS-induced BAL neutrophilia response was observed.

Series [2] deals with mouse lymphoma L5178Y cells. Nature of the series: In Vitro Micronucleus Assay (genotoxicity). Particulars: 3 hours exposure in the presence or absence of S9 mix, up to 1 mmol/L or solubility limit. It counts as cell-based. The source says:
In Vitro Micronucleus Assay
The following is a description of an assay that may be used to assess the genotoxicity of a compound using mouse lymphoma […] cells.
The in vitro micronucleus assay (IVM) detects chemicals that induce chromosomal damage by measuring the formation of small intra cell membrane-bound DNA fragments. At AstraZeneca, L5178Y cells are used as these are the cells of choice for follow on regulatory mammalian cell in vitro genotoxicity screening. The test system is simple to perform and produces rapid results. The IVM is suitable as a preliminary genetic toxicity-screening assay prior to compound selection.
A wide range of test chemical concentrations, up to 1 mmol/L or the chemicals solubility limit, is tested. […] Where possible, 20 hours after treatment exposure, at least three concentrations giving acceptable levels of toxicity (greater than 10% survival as measured by two day relative suspension growth) are selected for analysis of micronucleated cells. […] Where possible, a total of at least 1000 cells per culture are scored.
For any concentration, an increase in the number of micronucleated cells is considered to be significant if the increase is at least 2-fold the concurrent solvent control level, and the number of micronucleated cells is greater than 8 per thousand cells scored.

The target in series [3] is T1, human active recombinant p38 (p38α) (Homo sapiens, UniProt Q16539).
T1 construct: 6His
The experiment in a line: p38 Alpha Enzyme Assay (AlphaScreen, biotinylated-ATF2 substrate). To be noted: means of replicate determinations, pre-incubated for 4 hours at 37° C., SD of assay between 0.2 and 0.3 log units; for IC50: read-out: p38α inhibition Mean pIC50 (converted). It counts as biochemical.

A value given as a limit tells only on which side of the number the result lay.

T1 sequence (Q16539 whole entry): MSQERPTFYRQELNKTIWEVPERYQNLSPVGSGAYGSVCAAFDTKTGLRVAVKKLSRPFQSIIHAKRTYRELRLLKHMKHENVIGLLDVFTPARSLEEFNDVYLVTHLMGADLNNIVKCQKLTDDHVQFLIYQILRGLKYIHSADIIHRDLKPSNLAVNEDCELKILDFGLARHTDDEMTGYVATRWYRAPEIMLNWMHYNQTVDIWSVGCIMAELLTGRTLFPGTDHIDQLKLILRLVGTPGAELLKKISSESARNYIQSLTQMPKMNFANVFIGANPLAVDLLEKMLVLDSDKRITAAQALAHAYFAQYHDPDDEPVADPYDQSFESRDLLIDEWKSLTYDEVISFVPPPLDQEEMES

On to `Cc1c(F)cc(C(=O)NC2CC2)cc1-c1ccc2c(=O)n(CC(C)(C)CO)cc(CN3CCNC[C@H]3C)c2c1` [Example 26, N-Cyclopropyl-3-fluoro-5-[2-(3-hydroxy-2,2-dimethylpropyl)-4-{[(2R)-2-methylpiperazin-1-yl]methyl}-1-oxo-1,2-dihydroisoquinolin-6-yl]-4-methylbenzamide], for which, in series [1], the “activity in LPS Challenge Assay (active = statistically significant, p<0.05, inhibition of the LPS-induced BAL neutrophilia response)” value is on record as “active”. In addition, in series [2], the “activity in micronucleus assay (significant = at least 2-fold solvent control and more than 8 micronucleated cells per thousand)” value was “inactive”. Further, in series [3], the IC50 is 0.251 nM.
`Cc1c(F)cc(C(=O)NC2CC2)cc1-c1ccc2c(=O)n(CC(C)(C)CO)cc(S(=O)(=O)N3CCN[C@@H](CO)C3)c2c1` [Example 49, N-Cyclopropyl-3-fluoro-5-[2-(3-hydroxy-2,2-dimethylpropyl)-4-{[(3R)-3-(hydroxymethyl)piperazin-1-yl]sulfonyl}-1-oxo-1,2-dihydroisoquinolin-6-yl]-4-methylbenzamide]: the IC50 in series [3] is 0.501 nM.
Turning to `Cc1c(F)cc(C(=O)NC2CC2)cc1-c1ccc2c(=O)n(CC(C)(C)CO)cc(CN3CCN(C)CC3)c2c1` [Example 24, N-Cyclopropyl-3-fluoro-5-{2-(3-hydroxy-2,2-dimethylpropyl)-4-[(4-methylpiperazin-1-yl)methyl]-1-oxo-1,2-dihydroisoquinolin-6-yl}-4-methylbenzamide], the IC50 in series [3] was 0.631 nM.
Regarding `Cc1c(F)cc(C(=O)NC2CC2)cc1-c1ccc2c(=O)n(CCCO)cc(CN3CCN[C@@H](C)C3)c2c1` [Example 4, N-Cyclopropyl-3-fluoro-5-(2-(3-hydroxypropyl)-4-(((3S)-3-methylpiperazin-1-yl)methyl)-1-oxo-1,2-dihydroisoquinolin-6-yl)-4-methylbenzamide], the IC50 in series [3] was 0.501 nM.
For the compound `CNC1CCN(S(=O)(=O)c2cn(CC3CC3)c(=O)c3ccc(-c4cc(C(=O)NC5CC5)cc(F)c4C)cc23)CC1` [Example 52, N-cyclopropyl-3-[2-(cyclopropylmethyl)-4-{[4-(methylamino)piperidin-1-yl]sulfonyl}-1-oxo-1,2-dihydroisoquinolin-6-yl]-5-fluoro-4-methylbenzamide], the IC50 in series [3] is 0.2 nM.
Same read-out and setting: the figure for `Cc1c(F)cc(C(=O)NC2CC2)cc1-c1ccc2c(=O)n(CCO)cc(CN3CCN[C@@H](C)C3)c2c1` [Example 6] is 1 nM.
For the compound `Cc1c(F)cc(C(=O)NC2CC2)cc1-c1ccc2c(=O)n(CC(C)(C)CO)cc(CN3CCC[C@H](N)C3)c2c1` [Example 25, 3-[4-{[(3S)-3-Aminopiperidin-1-yl]methyl}-2-(3-hydroxy-2,2-dimethylpropyl)-1-oxo-1,2-dihydroisoquinolin-6-yl]-N-cyclopropyl-5-fluoro-4-methylbenzamide], the “p38α inhibition Mean pIC50” value in series [3] is 8.8.
For the compound `Cc1c(F)cc(C(=O)NC2CC2)cc1-c1ccc2c(=O)n(CC(C)(C)CO)cc(S(=O)(=O)N3CC[C@H](N)C3)c2c1` [Example 53, 3-[4-{[(3S)-3-Aminopyrrolidin-1-yl]sulfonyl}-2-(3-hydroxy-2,2-dimethylpropyl)-1-oxo-1,2-dihydroisoquinolin-6-yl]-N-cyclopropyl-5-fluoro-4-methylbenzamide], the IC50 in series [3] was 0.398 nM.
On the same count and under the same terms, the figure for `Cc1c(F)cc(C(=O)NC2CC2)cc1-c1ccc2c(=O)n(CC3(CO)CC3)cc(SC[C@@H]3CCCNC3)c2c1` [Example 63] is 0.398 nM; for `Cc1c(F)cc(C(=O)NC2CC2)cc1-c1ccc2c(=O)n(CC(C)(C)CO)cc(CN3CCNC[C@@H]3CO)c2c1` [Example 22, N-Cyclopropyl-3-fluoro-5-[2-(3-hydroxy-2,2-dimethylpropyl)-4-{[(2R)-2-(hydroxymethyl)piperazin-1-yl]methyl}-1-oxo-1,2-dihydroisoquinolin-6-yl]-4-methylbenzamide] it is 0.158 nM; for `Cc1c(F)cc(C(=O)NC2CC2)cc1-c1ccc2c(=O)n(CC(C)(C)CO)cc(S(=O)(=O)N3CCCNCC3)c2c1` [Example 46, N-Cyclopropyl-3-[4-(1,4-diazepan-1-ylsulfonyl)-2-(3-hydroxy-2,2-dimethylpropyl)-1-oxo-1,2-dihydroisoquinolin-6-yl]-5-fluoro-4-methylbenzamide] it is 0.158 nM.
`Cc1c(F)cc(C(=O)NC2CC2)cc1-c1ccc2c(=O)n(CCCO)cc(CN3CCN[C@H](CO)C3)c2c1` [Example 3, N-Cyclopropyl-3-fluoro-5-(4-(((3S)-3-(hydroxymethyl)piperazin-1-yl)methyl)-2-(3-hydroxypropyl)-1-oxo-1,2-dihydroisoquinolin-6-yl)-4-methylbenzamide]: the IC50 in series [3] is 0.158 nM.
In the case of `Cc1c(F)cc(C(=O)NC2CC2)cc1-c1ccc2c(=O)n(CC(C)(C)CO)cc(S[C@@H]3CCNC3)c2c1` [Example 65, N-Cyclopropyl-3-fluoro-5-{2-(3-hydroxy-2,2-dimethylpropyl)-1-oxo-4-[(3R)-pyrrolidin-3-ylsulfanyl]-1,2-dihydroisoquinolin-6-yl}-4-methylbenzamide], in series [3], the IC50 is below 0.0631 nM.
